Calls of active or inactive are those of the source. Rule as the data show it, for most assays here: actives have a measured Kd and inactives only a lower limit.
What was measured:
[1] = biological target: Tyrosine-protein kinase HCK (Homo sapiens, UniProt P08631)
[2] = biological target: T1, Membrane-associated tyrosine- and threonine-specific cdc2-inhibitory kinase (Homo sapiens, UniProt Q99640)
T1 sequence (Q99640 whole entry): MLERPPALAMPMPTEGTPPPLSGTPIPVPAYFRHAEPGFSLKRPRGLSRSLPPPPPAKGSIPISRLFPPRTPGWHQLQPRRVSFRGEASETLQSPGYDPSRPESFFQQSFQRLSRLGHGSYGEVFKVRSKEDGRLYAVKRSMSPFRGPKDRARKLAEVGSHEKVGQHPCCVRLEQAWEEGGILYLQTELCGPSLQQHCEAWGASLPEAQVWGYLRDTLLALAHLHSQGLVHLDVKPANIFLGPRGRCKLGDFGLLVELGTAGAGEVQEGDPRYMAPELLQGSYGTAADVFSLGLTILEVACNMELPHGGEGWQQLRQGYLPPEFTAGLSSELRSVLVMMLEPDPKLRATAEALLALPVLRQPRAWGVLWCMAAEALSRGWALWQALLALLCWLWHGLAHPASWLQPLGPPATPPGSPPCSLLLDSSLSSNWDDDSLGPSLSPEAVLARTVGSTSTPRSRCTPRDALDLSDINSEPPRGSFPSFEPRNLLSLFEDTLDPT

[3] = biological target: Protein kinase C delta type (Homo sapiens, UniProt Q05655)
Chain of Protein kinase C delta type (Q05655 whole entry): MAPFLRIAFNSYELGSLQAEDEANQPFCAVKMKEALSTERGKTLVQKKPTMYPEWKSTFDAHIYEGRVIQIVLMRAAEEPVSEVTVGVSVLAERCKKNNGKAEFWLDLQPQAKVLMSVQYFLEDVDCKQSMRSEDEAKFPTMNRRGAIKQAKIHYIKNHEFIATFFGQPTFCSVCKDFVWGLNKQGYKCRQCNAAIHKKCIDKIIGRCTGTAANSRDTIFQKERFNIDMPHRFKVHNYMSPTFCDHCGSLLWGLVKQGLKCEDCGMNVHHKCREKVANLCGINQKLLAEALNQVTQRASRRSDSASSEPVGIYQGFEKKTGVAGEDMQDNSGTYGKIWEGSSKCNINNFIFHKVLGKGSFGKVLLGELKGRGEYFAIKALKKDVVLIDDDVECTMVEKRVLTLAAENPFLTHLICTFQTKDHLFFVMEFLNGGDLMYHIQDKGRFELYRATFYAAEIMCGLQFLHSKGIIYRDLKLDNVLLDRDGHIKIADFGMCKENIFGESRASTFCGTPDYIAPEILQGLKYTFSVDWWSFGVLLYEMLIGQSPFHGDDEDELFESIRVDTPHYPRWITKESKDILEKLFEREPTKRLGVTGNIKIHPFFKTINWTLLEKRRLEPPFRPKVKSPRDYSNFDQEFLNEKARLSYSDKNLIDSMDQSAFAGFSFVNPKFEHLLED

Aurora kinase A = biological target: T2, Aurora kinase A (Homo sapiens, UniProt O14965)
T2 sequence (O14965 whole entry): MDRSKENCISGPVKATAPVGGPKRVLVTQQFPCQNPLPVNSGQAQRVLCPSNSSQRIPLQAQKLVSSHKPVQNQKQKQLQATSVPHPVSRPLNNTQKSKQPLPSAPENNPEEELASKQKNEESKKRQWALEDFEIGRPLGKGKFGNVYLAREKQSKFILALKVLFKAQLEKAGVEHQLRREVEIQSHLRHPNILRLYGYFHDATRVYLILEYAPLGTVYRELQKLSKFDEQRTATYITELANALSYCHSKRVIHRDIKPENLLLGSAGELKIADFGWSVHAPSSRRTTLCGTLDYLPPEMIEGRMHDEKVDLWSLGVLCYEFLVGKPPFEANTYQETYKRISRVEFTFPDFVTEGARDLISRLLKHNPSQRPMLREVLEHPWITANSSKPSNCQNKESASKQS

[4] = biological target: Mitogen-activated protein kinase kinase kinase kinase 1 (Homo sapiens, UniProt Q92918)
Chain of Mitogen-activated protein kinase kinase kinase kinase 1 (Q92918 whole entry): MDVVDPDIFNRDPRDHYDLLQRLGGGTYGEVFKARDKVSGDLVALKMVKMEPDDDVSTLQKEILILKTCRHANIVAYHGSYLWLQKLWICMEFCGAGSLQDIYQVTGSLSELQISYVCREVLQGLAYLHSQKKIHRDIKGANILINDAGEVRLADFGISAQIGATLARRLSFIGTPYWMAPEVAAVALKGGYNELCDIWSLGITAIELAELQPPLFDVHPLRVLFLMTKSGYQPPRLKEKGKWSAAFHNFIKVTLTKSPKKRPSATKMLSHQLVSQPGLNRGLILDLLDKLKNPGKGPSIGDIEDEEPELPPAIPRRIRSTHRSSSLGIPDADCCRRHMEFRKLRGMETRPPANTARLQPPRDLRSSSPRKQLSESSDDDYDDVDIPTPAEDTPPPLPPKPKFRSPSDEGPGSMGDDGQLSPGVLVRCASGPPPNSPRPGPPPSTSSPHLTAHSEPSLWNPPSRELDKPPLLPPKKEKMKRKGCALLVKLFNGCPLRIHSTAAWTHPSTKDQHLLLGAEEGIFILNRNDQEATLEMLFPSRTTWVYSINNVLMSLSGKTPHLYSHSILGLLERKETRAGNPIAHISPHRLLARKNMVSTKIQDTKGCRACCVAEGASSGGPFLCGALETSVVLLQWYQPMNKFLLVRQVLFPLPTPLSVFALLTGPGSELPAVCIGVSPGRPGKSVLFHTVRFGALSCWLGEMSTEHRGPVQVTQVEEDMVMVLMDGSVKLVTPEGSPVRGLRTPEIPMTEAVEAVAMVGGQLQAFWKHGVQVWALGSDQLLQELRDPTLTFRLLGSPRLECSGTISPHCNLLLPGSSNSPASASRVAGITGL

[5] = biological target: T3, Serine/threonine-protein kinase TAO3 (Homo sapiens, UniProt Q9H2K8)
T3 sequence (Q9H2K8 whole entry): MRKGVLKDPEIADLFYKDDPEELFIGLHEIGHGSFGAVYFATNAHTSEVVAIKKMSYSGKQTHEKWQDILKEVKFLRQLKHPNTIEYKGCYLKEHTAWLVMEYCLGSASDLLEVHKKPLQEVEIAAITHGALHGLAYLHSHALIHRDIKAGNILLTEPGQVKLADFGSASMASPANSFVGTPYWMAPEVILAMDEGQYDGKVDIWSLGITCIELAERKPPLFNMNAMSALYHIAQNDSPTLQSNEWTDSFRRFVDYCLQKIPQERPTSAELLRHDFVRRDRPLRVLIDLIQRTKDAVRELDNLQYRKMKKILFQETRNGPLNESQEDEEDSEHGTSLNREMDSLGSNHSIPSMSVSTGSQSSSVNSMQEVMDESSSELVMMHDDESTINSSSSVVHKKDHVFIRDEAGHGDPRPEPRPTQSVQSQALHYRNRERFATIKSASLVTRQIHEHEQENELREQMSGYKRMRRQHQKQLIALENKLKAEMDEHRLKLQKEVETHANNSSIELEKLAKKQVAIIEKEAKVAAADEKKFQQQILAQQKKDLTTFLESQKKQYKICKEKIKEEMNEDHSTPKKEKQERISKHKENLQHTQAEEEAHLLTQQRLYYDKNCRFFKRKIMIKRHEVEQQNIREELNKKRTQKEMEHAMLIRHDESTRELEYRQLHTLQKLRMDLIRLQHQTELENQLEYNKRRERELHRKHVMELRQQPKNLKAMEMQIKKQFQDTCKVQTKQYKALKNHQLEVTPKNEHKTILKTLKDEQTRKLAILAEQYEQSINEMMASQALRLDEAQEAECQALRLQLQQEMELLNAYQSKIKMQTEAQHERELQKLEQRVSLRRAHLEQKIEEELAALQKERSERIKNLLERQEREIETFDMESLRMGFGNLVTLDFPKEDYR

Ephrin type-B receptor 6 = biological target: T4, Ephrin type-B receptor 6 (Homo sapiens, UniProt O15197)
T4 sequence (O15197 whole entry): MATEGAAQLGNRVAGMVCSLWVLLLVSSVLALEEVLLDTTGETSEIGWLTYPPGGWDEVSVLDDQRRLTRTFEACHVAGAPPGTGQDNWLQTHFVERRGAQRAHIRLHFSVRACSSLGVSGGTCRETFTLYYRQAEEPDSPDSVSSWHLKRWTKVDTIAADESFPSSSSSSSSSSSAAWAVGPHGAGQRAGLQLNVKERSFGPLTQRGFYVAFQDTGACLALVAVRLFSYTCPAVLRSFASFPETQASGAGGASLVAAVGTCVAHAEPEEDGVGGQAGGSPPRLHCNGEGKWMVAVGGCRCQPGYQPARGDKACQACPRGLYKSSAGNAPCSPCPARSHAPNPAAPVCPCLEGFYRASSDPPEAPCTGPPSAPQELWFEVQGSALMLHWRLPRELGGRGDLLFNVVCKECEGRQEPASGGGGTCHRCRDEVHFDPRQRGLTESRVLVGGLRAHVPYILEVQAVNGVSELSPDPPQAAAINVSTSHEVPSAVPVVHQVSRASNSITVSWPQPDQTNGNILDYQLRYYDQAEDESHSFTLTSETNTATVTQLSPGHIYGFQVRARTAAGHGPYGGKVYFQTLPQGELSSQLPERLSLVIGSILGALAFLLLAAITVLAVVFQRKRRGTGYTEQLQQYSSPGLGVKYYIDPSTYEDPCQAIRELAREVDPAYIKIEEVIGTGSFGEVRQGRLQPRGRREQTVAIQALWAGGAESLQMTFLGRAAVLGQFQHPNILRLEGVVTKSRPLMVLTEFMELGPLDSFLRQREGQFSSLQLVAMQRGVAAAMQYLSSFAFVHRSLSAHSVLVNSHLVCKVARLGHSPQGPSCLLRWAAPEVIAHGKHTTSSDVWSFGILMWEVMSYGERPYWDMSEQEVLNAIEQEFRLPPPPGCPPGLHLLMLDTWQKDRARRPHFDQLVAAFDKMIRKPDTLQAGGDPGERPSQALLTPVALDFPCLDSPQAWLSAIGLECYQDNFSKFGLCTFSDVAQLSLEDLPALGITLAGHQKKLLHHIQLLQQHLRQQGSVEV
Also: in the data inactive means no Kd found up to 30 µM.

Chain of Tyrosine-protein kinase HCK (P08631 whole entry): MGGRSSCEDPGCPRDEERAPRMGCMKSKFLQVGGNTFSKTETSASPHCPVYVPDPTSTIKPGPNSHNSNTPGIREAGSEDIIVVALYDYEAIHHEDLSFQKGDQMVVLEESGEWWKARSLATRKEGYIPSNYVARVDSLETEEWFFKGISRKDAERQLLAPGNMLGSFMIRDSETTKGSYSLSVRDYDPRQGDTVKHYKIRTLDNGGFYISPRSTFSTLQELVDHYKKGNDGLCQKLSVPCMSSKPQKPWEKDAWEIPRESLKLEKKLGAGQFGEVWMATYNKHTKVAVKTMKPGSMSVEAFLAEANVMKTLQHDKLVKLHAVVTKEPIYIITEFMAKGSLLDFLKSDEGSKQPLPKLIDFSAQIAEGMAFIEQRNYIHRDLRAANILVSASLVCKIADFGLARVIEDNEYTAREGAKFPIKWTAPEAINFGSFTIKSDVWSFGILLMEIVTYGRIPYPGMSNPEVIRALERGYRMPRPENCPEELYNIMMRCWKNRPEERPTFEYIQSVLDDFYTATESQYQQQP

Row | Compound | Kd [1] | Kd [2] | Kd [3] | Kd (Aurora kinase A) | Kd [4] | Kd [5] | Kd (Ephrin type-B receptor 6)
1 | CNC(=O)CN1CCC(Oc2cc3c(Nc4cccc(Cl)c4F)ncnc3cc2OC)CC1 [SAPITINIB] | > 30 µM (inactive) | > 30 µM (inactive) | > 30 µM (inactive) | > 30 µM (inactive) | > 30 µM (inactive) | > 30 µM (inactive) | > 30 µM (inactive)
2 | CCCS(=O)(=O)Nc1ccc(F)c(C(=O)c2c[nH]c3ncc(-c4ccc(Cl)cc4)cc23)c1F [VEMURAFENIB] | > 30 µM (inactive) | > 30 µM (inactive) | > 30 µM (inactive) | > 30 µM (inactive) | > 30 µM (inactive) | > 30 µM (inactive) | > 30 µM (inactive)
3 | CNC(=O)c1ccc(C)c(-n2c(C)cc(OCc3ccc(F)cc3F)c(Br)c2=O)c1 [PH-797804] | > 30 µM (inactive) | > 30 µM (inactive) | > 30 µM (inactive) | > 30 µM (inactive) | > 30 µM (inactive) | > 30 µM (inactive) | > 30 µM (inactive)
4 | CN1CCC(COc2cnc(-c3cccc(Cn4nc(-c5cccc(C#N)c5)ccc4=O)c3)nc2)CC1 [TEPOTINIB] | > 30 µM (inactive) | > 30 µM (inactive) | > 30 µM (inactive) | > 30 µM (inactive) | > 30 µM (inactive) | > 30 µM (inactive) | > 30 µM (inactive)
5 | COc1cc(N2CCC(N3CCN(C)CC3)CC2)ccc1Nc1ncnc(Nc2ccccc2S(=O)(=O)C(C)C)n1 [ASP-3026] | 1.25 µM (active) | > 30 µM (inactive) | > 30 µM (inactive) | > 30 µM (inactive) | > 30 µM (inactive) | > 30 µM (inactive) | > 30 µM (inactive)
6 | CNC(=O)c1ccc(-c2cnc3ncc(Cc4ccc5ncccc5c4)n3n2)cc1F [CAPMATINIB] | > 30 µM (inactive) | > 30 µM (inactive) | > 30 µM (inactive) | > 30 µM (inactive) | > 30 µM (inactive) | > 30 µM (inactive) | > 30 µM (inactive)
7 | CCn1c(=O)c(-c2cc[nH]n2)cc2c(C)nc(N)nc21 [VOXTALISIB] | > 30 µM (inactive) | > 30 µM (inactive) | > 30 µM (inactive) | > 30 µM (inactive) | > 30 µM (inactive) | > 30 µM (inactive) | > 30 µM (inactive)
8 | Cc1cc2c(F)c(Oc3ncnn4cc(OC[C@@H](C)OC(=O)[C@H](C)N)c(C)c34)ccc2[nH]1 [BRIVANIB ALANINATE] | > 30 µM (inactive) | > 30 µM (inactive) | > 30 µM (inactive) | > 30 µM (inactive) | > 30 µM (inactive) | > 30 µM (inactive) | > 30 µM (inactive)
9 | COc1cc(OC)c(/C=C/S(=O)(=O)Cc2ccc(OC)c(NCC(=O)O)c2)c(OC)c1 [RIGOSERTIB] | > 30 µM (inactive) | > 30 µM (inactive) | > 30 µM (inactive) | > 30 µM (inactive) | > 30 µM (inactive) | > 30 µM (inactive) | > 30 µM (inactive)
10 | C=CC(=O)N1CCC(Oc2cc3c(Nc4ccc(Cl)c(Cl)c4F)ncnc3cc2OC)CC1 [POZIOTINIB] | > 30 µM (inactive) | > 30 µM (inactive) | > 30 µM (inactive) | > 30 µM (inactive) | > 30 µM (inactive) | > 30 µM (inactive) | > 30 µM (inactive)
11 | Cc1ccc(-n2nc(C(C)(C)C)cc2NC(=O)NCc2cc(F)ccc2Oc2ccc3c(cnn3CCO)c2)cc1 [PEXMETINIB] | > 30 µM (inactive) | > 30 µM (inactive) | > 30 µM (inactive) | > 30 µM (inactive) | > 30 µM (inactive) | > 30 µM (inactive) | > 30 µM (inactive)
12 | Cn1cc(-c2ccc(F)c(C(F)(F)F)c2)nc1C1CCN(c2ncnc3[nH]ncc23)CC1 [LY-2584702] | > 30 µM (inactive) | > 30 µM (inactive) | > 30 µM (inactive) | > 30 µM (inactive) | > 30 µM (inactive) | > 30 µM (inactive) | > 30 µM (inactive)
13 | CC[C@H](Nc1ncnc2[nH]cnc12)c1nc2cccc(F)c2c(=O)n1-c1ccccc1 [IDELALISIB] | > 30 µM (inactive) | > 30 µM (inactive) | > 30 µM (inactive) | > 30 µM (inactive) | > 30 µM (inactive) | > 30 µM (inactive) | > 30 µM (inactive)
14 | O=C1NC(=O)/C(=C/c2ccc3nccc(-c4ccncc4)c3c2)S1 [GSK-1059615] | > 30 µM (inactive) | > 30 µM (inactive) | > 30 µM (inactive) | > 30 µM (inactive) | > 30 µM (inactive) | > 30 µM (inactive) | > 30 µM (inactive)
15 | CNC(=O)c1cc(Oc2ccc(NC(=O)Nc3ccc(Cl)c(C(F)(F)F)c3)c(F)c2)ccn1 [REGORAFENIB] | > 30 µM (inactive) | > 30 µM (inactive) | > 30 µM (inactive) | > 30 µM (inactive) | > 30 µM (inactive) | > 30 µM (inactive) | > 30 µM (inactive)
16 | CN1CCC(CNc2ccc3ncc(-c4cccc(OC(F)(F)F)c4)n3n2)CC1 [SGI-1776] | > 30 µM (inactive) | > 30 µM (inactive) | > 30 µM (inactive) | > 30 µM (inactive) | > 30 µM (inactive) | > 30 µM (inactive) | > 30 µM (inactive)
17 | CC(C)Nc1cc(-c2c[nH]c(C(=O)N[C@H](CO)c3cccc(Cl)c3)c2)c(Cl)cn1 [ULIXERTINIB] | > 30 µM (inactive) | > 30 µM (inactive) | > 30 µM (inactive) | > 30 µM (inactive) | > 30 µM (inactive) | > 30 µM (inactive) | > 30 µM (inactive)

— ChEMBL document CHEMBL3991601, “The target landscape of clinical kinase drugs” (Science, 2017)
